Laboratory results reported in patent US8952024B2, “Herbicidal pyrimidone derivatives” (E I du Pont de Nemours and Company, priority 2009, dated 2015).

Legend:
Assay type in all cases: in vivo
[1] = tested on: barnyardgrass (Echinochloa crus-galli); experiment: Test B flooded paddy test; details: for Plant response rating, Flood, Barnyardgrass: 250 g ai/ha, flooded paddy test, visual rating on 0 to 100 scale (0 no effect, 100 complete control) after 13 to 15 days; for Plant response rating, Barnyardgrass: Flood (flooded paddy test), 13 to 15 days
Procedure, shortened: (§1)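 Post-flood paddy application: compounds are introduced into water 3 cm deep over the soil, reaching plants at the 2-leaf stage. The water level is maintained, and after 13–15 days under greenhouse conditions, response is judged by eye relative to controls, where 100 means complete control.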

[2] = tested on: ducksalad (Heteranthera limosa); experiment: Test B flooded paddy test; details: for Plant response rating, Flood, Ducksalad: 250 g ai/ha, flooded paddy test, visual rating on 0 to 100 scale (0 no effect, 100 complete control) after 13 to 15 days; for Plant response rating, Ducksalad: Flood (flooded paddy test), 13 to 15 days
Procedure, shortened: as §1

rice (Oryza sativa) = experiment: Test B flooded paddy test; details: for Plant response rating, Flood, Rice: 250 g ai/ha, flooded paddy test, visual rating on 0 to 100 scale (0 no effect, 100 complete control) after 13 to 15 days; for Plant response rating, Rice: Flood (flooded paddy test), 13 to 15 days
Procedure, shortened: as §1

[3] = tested on: umbrella sedge (Cyperus difformis); experiment: Test B flooded paddy test; details: for Plant response rating, Flood, Sedge, Umbrella: 250 g ai/ha, flooded paddy test, visual rating on 0 to 100 scale (0 no effect, 100 complete control) after 13 to 15 days; for Plant response rating, Sedge, Umbrella: Flood (flooded paddy test), 13 to 15 days
Procedure, shortened: as §1

[4] = tested on: morningglory (Ipomoea coccinea); experiment: Test B pre-/postemergence plant response; details: for Morningglory plant response rating (0 to 100 scale): 62 g ai/ha, 0 is no effect, 13 to 15 days
Procedure, shortened: (§2)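 Compound in solvent + surfactant applied pre-em (loam/sand) or post-em (plants 2–18 cm, peat medium); greenhouse hold 13–15 days; visual 0–100 control score.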

[5] = tested on: Surinam grass (Brachiaria decumbens); experiment: Test B pre-/postemergence plant response; details: for Surinam Grass plant response rating (0 to 100 scale): 62 g ai/ha, postemergence, 0 is no effect, 100 is complete control, 13 to 15 days; for Plant response rating, Surinam Grass: Postemergence, scale 0 to 100 (0 no effect, 100 complete control)
Procedure, shortened: as §2

[6] = tested on: Italian ryegrass (Lolium multiflorum); experiment: Test B pre-/postemergence plant response; details: for Ryegrass, Italian plant response rating (0 to 100 scale): 62 g ai/ha, postemergence, 0 is no effect, 100 is complete control, 13 to 15 days; for Plant response rating, Ryegrass, Italian: Postemergence, scale 0 to 100 (0 no effect, 100 complete control)
Procedure, shortened: as §2

[7] = tested on: bermudagrass (Cynodon dactylon); experiment: Test B pre-/postemergence plant response; details: for Bermudagrass plant response rating (0 to 100 scale): 62 g ai/ha, 0 is no effect, 13 to 15 days
Procedure, shortened: as §2

[8] = tested on: blackgrass (Alopecurus myosuroides); experiment: Test B pre-/postemergence plant response; details: for Blackgrass plant response rating (0 to 100 scale): 62 g ai/ha, 0 is no effect, 13 to 15 days
Procedure, shortened: as §2

corn (Zea mays) = experiment: Test B pre-/postemergence plant response; details: for Corn plant response rating (0 to 100 scale): 62 g ai/ha, 0 is no effect, 13 to 15 days
Procedure, shortened: as §2

[9] = tested on: ragweed (common ragweed, Ambrosia elatior); experiment: Test B pre-/postemergence plant response; details: for Ragweed plant response rating (0 to 100 scale): 62 g ai/ha, postemergence, 0 is no effect, 100 is complete control, 13 to 15 days; for Plant response rating, Ragweed: Postemergence, scale 0 to 100 (0 no effect, 100 complete control)
Procedure, shortened: as §2

[10] = tested on: cocklebur (Xanthium strumarium); experiment: Test B pre-/postemergence plant response; details: for Cocklebur plant response rating (0 to 100 scale): 62 g ai/ha, 0 is no effect, 13 to 15 days
Procedure, shortened: as §2

soybean (Glycine max) = experiment: Test B pre-/postemergence plant response; details: for Soybean plant response rating (0 to 100 scale): 62 g ai/ha, postemergence, 0 is no effect, 100 is complete control, 13 to 15 days; for Plant response rating, Soybean: Postemergence, scale 0 to 100 (0 no effect, 100 complete control)
Procedure, shortened: as §2

[11] = 62 g ai/ha, scale of 0 to 100 where 0 is no effect and 100 is complete control
[12] = 125 g ai/ha, scale 0 to 100, 0 is no effect, 100 is complete control
[13] = Flood, 31 g ai/ha, scale 0 to 100 (0 no effect, 100 complete control)
[14] = 31 g ai/ha, postemergence, scale 0 to 100, 0 is no effect, 100 is complete control
[15] = postemergence, 100 is complete control
[16] = Postemergence, 125 g ai/ha, scale 0 to 100 (0 no effect, 100 complete control)
[17] = Postemergence, 250 g ai/ha, scale 0 to 100 (0 no effect, 100 complete control)

SMILES: CCCn1c(-c2ccc(F)cc2)ncc(C(=O)C2=C(O)CCCC2=O)c1=O [Compound 102]
- Plant response rating, Flood, Barnyardgrass [1]: 70
- Plant response rating, Barnyardgrass [1, 11]: 60
- Plant response rating, Barnyardgrass [1, 12]: 60
- Barnyardgrass plant response rating [1, 13]: 15
- Plant response rating, Flood, Ducksalad [2]: 85
- Plant response rating, Ducksalad [2, 11]: 40
- Plant response rating, Ducksalad [2, 12]: 80
- Ducksalad plant response rating [2, 13]: 30
- Plant response rating, Flood, Rice (rice (Oryza sativa)): 35
- Plant response rating, Rice (rice (Oryza sativa); [11]): 15
- Plant response rating, Rice (rice (Oryza sativa); [12]): 20
- Rice plant response rating (rice (Oryza sativa); [13]): 10
- Plant response rating, Flood, Sedge, Umbrella [3]: 75
- Plant response rating, Sedge, Umbrella [3, 11]: 40
- Plant response rating, Sedge, Umbrella [3, 12]: 65
- Sedge, Umbrella plant response rating [3, 13]: 30
- Plant response rating, Morningglory [4, 14]: 65
- Morningglory plant response rating (0 to 100 scale) [4, 15]: 100
- Plant response rating, Morningglory [4, 16]: 100
- Plant response rating, Morningglory [4, 17]: 100
- Surinam Grass plant response rating (0 to 100 scale) [5]: 75
- Plant response rating, Surinam Grass ([5]; 125 g ai/ha): 75
- Plant response rating, Surinam Grass ([5]; 250 g ai/ha): 85
- Ryegrass, Italian plant response rating (0 to 100 scale) [6]: 0
- Plant response rating, Ryegrass, Italian ([6]; 125 g ai/ha): 5
- Plant response rating, Ryegrass, Italian ([6]; 250 g ai/ha): 10
- Plant response rating, Bermudagrass [7, 14]: 80
- Bermudagrass plant response rating (0 to 100 scale) [7, 15]: 85
- Plant response rating, Bermudagrass [7, 16]: 85
- Plant response rating, Bermudagrass [7, 17]: 100
- Plant response rating, Blackgrass [8, 14]: 0
- Blackgrass plant response rating (0 to 100 scale) [8, 15]: 5
- Plant response rating, Blackgrass [8, 16]: 30
- Plant response rating, Blackgrass [8, 17]: 45
- Corn plant response rating (0 to 100 scale) (corn (Zea mays); [15]): 15
- Plant response rating, Corn (corn (Zea mays); [16]): 65
- Plant response rating, Corn (corn (Zea mays); [17]): 70
- Ragweed plant response rating (0 to 100 scale) [9]: 80
- Plant response rating, Ragweed ([9]; 125 g ai/ha): 85
- Plant response rating, Ragweed ([9]; 250 g ai/ha): 95
- Plant response rating, Cocklebur [10, 14]: 90
- Cocklebur plant response rating (0 to 100 scale) [10, 15]: 95
- Plant response rating, Cocklebur [10, 16]: 100
- Plant response rating, Cocklebur [10, 17]: 100
- Soybean plant response rating (0 to 100 scale) (soybean (Glycine max)): 85
- Plant response rating, Soybean (soybean (Glycine max); 125 g ai/ha): 95
- Plant response rating, Soybean (soybean (Glycine max); 250 g ai/ha): 100

SMILES: COCC(C)n1c(-c2ccccc2)ncc(C(=O)C2=C(O)CCCC2=O)c1=O (stereo not drawn) [Compound 107]
- Plant response rating, Flood, Barnyardgrass [1]: 60
- Plant response rating, Barnyardgrass [1, 11]: 40
- Plant response rating, Flood, Ducksalad [2]: 40
- Plant response rating, Ducksalad [2, 11]: 0
- Plant response rating, Flood, Rice (rice (Oryza sativa)): 45
- Plant response rating, Rice (rice (Oryza sativa); [11]): 20
- Plant response rating, Flood, Sedge, Umbrella [3]: 85
- Plant response rating, Sedge, Umbrella [3, 11]: 60
- Plant response rating, Morningglory [4, 14]: 100
- Morningglory plant response rating (0 to 100 scale) [4, 15]: 100
- Plant response rating, Morningglory [4, 16]: 100
- Plant response rating, Morningglory [4, 17]: 100
- Surinam Grass plant response rating (0 to 100 scale) [5]: 75
- Plant response rating, Surinam Grass ([5]; 125 g ai/ha): 80
- Plant response rating, Surinam Grass ([5]; 250 g ai/ha): 85
- Ryegrass, Italian plant response rating (0 to 100 scale) [6]: 0
- Plant response rating, Ryegrass, Italian ([6]; 125 g ai/ha): 5
- Plant response rating, Ryegrass, Italian ([6]; 250 g ai/ha): 5
- Plant response rating, Bermudagrass [7, 14]: 75
- Bermudagrass plant response rating (0 to 100 scale) [7, 15]: 80
- Plant response rating, Bermudagrass [7, 16]: 95
- Plant response rating, Bermudagrass [7, 17]: 98
- Plant response rating, Blackgrass [8, 14]: 0
- Blackgrass plant response rating (0 to 100 scale) [8, 15]: 5
- Plant response rating, Blackgrass [8, 16]: 15
- Plant response rating, Blackgrass [8, 17]: 20
- Plant response rating, Corn (corn (Zea mays); [14]): 65
- Corn plant response rating (0 to 100 scale) (corn (Zea mays); [15]): 65
- Plant response rating, Corn (corn (Zea mays); [16]): 75
- Plant response rating, Corn (corn (Zea mays); [17]): 85
- Ragweed plant response rating (0 to 100 scale) [9]: 85
- Plant response rating, Ragweed ([9]; 125 g ai/ha): 95
- Plant response rating, Ragweed ([9]; 250 g ai/ha): 98
- Plant response rating, Cocklebur [10, 14]: 98
- Cocklebur plant response rating (0 to 100 scale) [10, 15]: 100
- Plant response rating, Cocklebur [10, 16]: 100
- Plant response rating, Cocklebur [10, 17]: 100
- Soybean plant response rating (0 to 100 scale) (soybean (Glycine max)): 98
- Plant response rating, Soybean (soybean (Glycine max); 125 g ai/ha): 100
- Plant response rating, Soybean (soybean (Glycine max); 250 g ai/ha): 100
